PubChem BioAssay AID248 (DTP/NCI, 2004)
Where “and” joins values, the source holds several entries; their conditions need not be identical. Identical values can stand only once. Inconclusive results and toxic doses are left out.

Test system: L1210 leukemia ip in BDF1 mice, survival T/C
Assay: NCI In Vivo Anticancer Drug Screen. Data for tumor model L1210 Leukemia (intraperitoneal) in B6D2F1 (BDF1) mice
Settings: endpoint: mean survival time, higher = longer survival
Outline: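 Tumor was transplanted into mice, which were then dosed with test compound or vehicle alone. Survival was recorded for each group, and the treated figure was expressed relative to the control figure.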

[1] = dose: 100.0 mg/kg/injection, schedule: Q01DX009 (ip), vehicle: saline with Tween-80
[2] = dose: 200.0 mg/kg/injection, schedule: Q01DX009 (ip), vehicle: saline with Tween-80
[3] = dose: 100.0 mg/kg/injection, schedule: Q04DX002 (ip), vehicle: Klucel (hydroxypropylcellulose) (HPC)
[4] = dose: 200.0 mg/kg/injection, schedule: Q04DX002 (ip), vehicle: Klucel (hydroxypropylcellulose) (HPC)
[5] = dose: 400.0 mg/kg/injection, schedule: Q04DX002 (ip), vehicle: Klucel (hydroxypropylcellulose) (HPC)
[6] = dose: 100.0 mg/kg/injection, schedule: Q01DX001 (ip), vehicle: carboxymethylcellulose (CMC)
[7] = dose: 200.0 mg/kg/injection, schedule: Q01DX001 (ip), vehicle: carboxymethylcellulose (CMC)
[8] = dose: 400.0 mg/kg/injection, schedule: Q01DX001 (ip), vehicle: carboxymethylcellulose (CMC)

## FC(F)(F)c1ccc2c(c1)N(CCCN1CCN(CCC3OCCCO3)CC1)c1ccccc1S2
dose: 0.78 mg/kg/injection, schedule: Q04DX003 (ip), vehicle: saline
  T/C: 102 % of control
dose: 1.56 mg/kg/injection, schedule: Q04DX003 (ip), vehicle: saline
  T/C: 101 % of control
dose: 3.12 mg/kg/injection, schedule: Q04DX003 (ip), vehicle: saline
  T/C: 102 % of control
dose: 6.25 mg/kg/injection, schedule: Q04DX003 (ip), vehicle: saline
  T/C: 96 % of control
dose: 12.5 mg/kg/injection, schedule: Q04DX003 (ip), vehicle: saline
  T/C: 112 % of control

## COc1ccc(C=Nc2ccccc2N=Cc2ccc(OC)c(OC)c2)cc1OC
[1]
  T/C: 106 % of control
dose: 100.0 mg/kg/injection, schedule: Q04DX003 (ip), vehicle: saline with Tween-80
  T/C: 96 % of control
[2]
  T/C: 97 % of control
dose: 200.0 mg/kg/injection, schedule: Q04DX003 (ip), vehicle: saline with Tween-80
  T/C: 93 % of control
dose: 400.0 mg/kg/injection, schedule: Q01DX009 (ip), vehicle: saline with Tween-80
  T/C: 106 % of control
dose: 400.0 mg/kg/injection, schedule: Q04DX003 (ip), vehicle: saline with Tween-80
  T/C: 93 % of control

## CC(=O)n1c(O)c(N=Nc2ccc([N+](=O)[O-])cc2[N+](=O)[O-])c2cc(Br)ccc21
[3]
  T/C: 92 % of control
[4]
  T/C: 92 % of control
[5]
  T/C: 92 % of control

## CCCCN(CCCC)C(=O)CC(C)(O)c1ccccc1 (stereo not given)
dose: 50.0 mg/kg/injection, schedule: Q01DX001 (ip), vehicle: saline
  T/C: 96 % of control
dose: 100.0 mg/kg/injection, schedule: Q01DX001 (ip), vehicle: saline
  T/C: 107 % of control
dose: 200.0 mg/kg/injection, schedule: Q01DX001 (ip), vehicle: saline
  T/C: 94 % of control
dose: 400.0 mg/kg/injection, schedule: Q01DX001 (ip), vehicle: saline
  T/C: 96 % of control

## Cc1cc(=O)[nH]c2c(Cl)ccc(C(F)(F)F)c12
dose: 100.0 mg/kg/injection, schedule: Q01DX001 (ip), vehicle: other
  T/C: 94 % of control
dose: 200.0 mg/kg/injection, schedule: Q01DX001 (ip), vehicle: other
  T/C: 94 % of control
dose: 400.0 mg/kg/injection, schedule: Q01DX001 (ip), vehicle: other
  T/C: 114 % of control

## CNC(=N)c1ccc(NC(=N)c2ccc(NC(=N)c3ccc(NC(=O)Nc4ccc(C(=N)Nc5ccc(C(=N)Nc6ccc(C(=N)NC)cc6)cc5)cc4)cc3)cc2)cc1
dose: 6.25 mg/kg/injection, schedule: Q01DX001 (ip), vehicle: water
  T/C: 112 % of control
dose: 12.5 mg/kg/injection, schedule: Q01DX001 (ip), vehicle: water
  T/C: 108 % of control
dose: 16.0 mg/kg/injection, schedule: Q01DX015 (ip), vehicle: water
  T/C: 157 % of control
dose: 25.0 mg/kg/injection, schedule: Q01DX001 (ip), vehicle: water
  T/C: 112 % of control
dose: 31.0 mg/kg/injection, schedule: Q01DX015 (ip), vehicle: water
  T/C: 214 % of control

## CN(CCN1CCCCC1)C(=O)C(c1ccccc1)C1CCCCC1 (stereo not given)
dose: 75.0 mg/kg/injection, schedule: Q01DX001 (ip), vehicle: saline
  T/C: 98 % of control

## Nc1ccc(S(=O)(=O)c2ccc(N)cn2)cc1
dose: 50.0 mg/kg/injection, schedule: Q04DX002 (ip), vehicle: Klucel (hydroxypropylcellulose) (HPC)
  T/C: 89 % of control
[3]
  T/C: 98 % of control and 107 % of control
[4]
  T/C: 96 % of control
[5]
  T/C: 96 % of control and 102 % of control

## CCCCCCCNC1=C(c2ccccc2)C(=O)C(NCCCCCCC)=C(c2ccccc2)C1=O
[6]
  T/C: 94 % of control
[7]
  T/C: 96 % of control
[8]
  T/C: 91 % of control

## O=C(NCc1ccccc1)c1ccccc1/C(=N/O)c1ccccc1
[2]
  T/C: 86 % of control

## CC1CCc2c(O)ccc(O)c21 (stereo not given)
[6]
  T/C: 102 % of control
[7]
  T/C: 96 % of control
[8]
  T/C: 94 % of control

## Cc1ccc(-c2ccc(-c3ccc(C)cc3)o2)cc1
dose: 100.0 mg/kg/injection, schedule: Q01DX001 (ip), vehicle: Klucel (hydroxypropylcellulose) (HPC)
  T/C: 95 % of control
dose: 200.0 mg/kg/injection, schedule: Q01DX001 (ip), vehicle: Klucel (hydroxypropylcellulose) (HPC)
  T/C: 102 % of control and 90 % of control
dose: 400.0 mg/kg/injection, schedule: Q01DX001 (ip), vehicle: Klucel (hydroxypropylcellulose) (HPC)
  T/C: 94 % of control

## O=C(NCc1ccccc1)Sc1ccccc1
dose: 87.5 mg/kg/injection, schedule: Q01DX001 (ip), vehicle: Klucel (hydroxypropylcellulose) (HPC)
  T/C: 96 % of control

## COc1ccc(C(C)CO)cc1 (stereo not given)
dose: 50.0 mg/kg/injection, schedule: Q01DX009 (ip), vehicle: saline with Tween-80
  T/C: 102 % of control
[1]
  T/C: 94 % of control
[2]
  T/C: 102 % of control
